Among the test systems are OVCAR-8; HT-29; RXF 393; NCI-H460; SNB-75; HCT-116; OVCAR-4; K562; HOP-62; TK-10; NCI/ADR-RES; SNB-19; BT-549; A549; SW-620; UACC-257; IGROV-1; Malme-3M; PC-3; A498.
Holding throughout (assay): growth of human tumour cells (NCI), 48 h

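Where inhibition never reached the appropriate level, the endpoint shown equals the highest concentration tested. Otherwise, values were interpolated linearly from a five-concentration, 48-hour dose response in 96-well plates. At the GI50, growth is halved.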 Active and inactive are the calls of the source. Cut-off read from the data, not from the text of the source: active = GI50 up to about 1.1 µM and inactive = higher.

On to `CCOC(=O)C(C(=S)Nc1ccccc1)c1nn2c(=O)cc(C)nc2s1` (stereo not drawn), for which the GI50 was 23.6 µM (inactive) in the experiment on OVCAR-8; 19.3 µM (inactive) in the experiment on HT-29; 39.1 µM (inactive) with RXF 393; 31.6 µM (inactive) in the experiment on NCI-H460; 16.9 µM (inactive) in the experiment with SNB-75; 20.8 µM (inactive) in the experiment on HCT-116. Also, the GI50 was 30.8 µM (inactive) with OVCAR-4; 20.9 µM (inactive) in the experiment with K562; 65 µM (inactive) with HOP-62; 29.7 µM (inactive) in the experiment on TK-10; 26.7 µM (inactive) in the experiment with NCI/ADR-RES; 35.6 µM (inactive) in the experiment with SNB-19. Further, the GI50 is 25.2 µM (inactive) with BT-549; 37.4 µM (inactive) in the experiment on A549; 46.7 µM (inactive) with SW-620; 22.7 µM (inactive) in the experiment on UACC-257; 36.7 µM (inactive) with IGROV-1; 22.9 µM (inactive) in the experiment with Malme-3M. Moreover, the GI50 with PC-3 is 24.8 µM (inactive).
As to `CC(C)=CC(=O)C[C@H]1C(=O)O[C@@H]2C[C@H]3C(C)=CC(=O)[C@@H](O)[C@]3(C)[C@H]3[C@@]4(O)OC[C@]32[C@@H]1[C@@H](C)[C@H]4O`, the GI50 was 0.236 µM (active) in the experiment on A498; < 0.01 µM (active) in the experiment on OVCAR-8; < 0.0107 µM (active) in the experiment with HT-29; < 0.01 µM (active) in the experiment on NCI-H460; 0.0148 µM (active) in the experiment with SNB-75; < 0.01 µM (active) in the experiment on HCT-116. Besides, the GI50 with OVCAR-4 was 0.0364 µM (active); with K562 it was < 0.01 µM (active); in the experiment with HOP-62, 0.0227 µM (active); in the experiment with TK-10, 0.019 µM (active); with NCI/ADR-RES, 0.631 µM (active); in the experiment with SNB-19, < 0.0127 µM (active). Also, the GI50 in the experiment on BT-549 was 0.0213 µM (active); with A549 it was 0.122 µM (active); with SW-620, 0.0281 µM (active); in the experiment on UACC-257 it was 0.0185 µM (active); with IGROV-1, < 0.01 µM (active); in the experiment with Malme-3M, < 0.01 µM (active). In addition, the GI50 in the experiment on PC-3 is 0.0159 µM (active).
For the compound `COc1ccc(-c2coc3c4c(ccc3c2=O)OCO4)cc1OC`, the GI50 in the experiment with A498 is > 100 µM (inactive); with OVCAR-8, 38 µM (inactive); with HT-29, > 100 µM (inactive); in the experiment with NCI-H460, 57.8 µM (inactive); with SNB-75 it was 38.2 µM (inactive); with HCT-116 it was > 100 µM (inactive). For the same compound, the GI50 was 22.5 µM (inactive) in the experiment with OVCAR-4; 7.6 µM (inactive) in the experiment with K562; 36.7 µM (inactive) in the experiment with HOP-62; 63 µM (inactive) in the experiment with TK-10; 35.8 µM (inactive) in the experiment on NCI/ADR-RES; 29 µM (inactive) in the experiment on SNB-19. The GI50 in the experiment with BT-549 was 14.9 µM (inactive); in the experiment with A549, 55.6 µM (inactive); in the experiment with SW-620, > 100 µM (inactive); with UACC-257 it was > 100 µM (inactive); with IGROV-1, 44.4 µM (inactive); with PC-3, > 100 µM (inactive).
Consider `O=C1CC[C@@]23CC(=O)O[C@@H]2CCCC3C1` (stereo partly drawn), for which the GI50 in the experiment with OVCAR-8 is > 100 µM (inactive); in the experiment with HT-29, > 100 µM (inactive); with RXF 393 it was 18.5 µM (inactive); in the experiment with NCI-H460, > 100 µM (inactive); with SNB-75, > 100 µM (inactive); in the experiment with HCT-116, > 100 µM (inactive). The GI50 in the experiment with OVCAR-4, in the experiment with K562, in the experiment with HOP-62, in the experiment with TK-10, in the experiment on NCI/ADR-RES and in the experiment with SNB-19 was > 100 µM (inactive) in each case. The GI50 with BT-549, with A549, in the experiment on SW-620, in the experiment with UACC-257, in the experiment with IGROV-1 and with Malme-3M was > 100 µM (inactive) in each case. In addition, the GI50 in the experiment on PC-3 is > 100 µM (inactive).
For `Cc1cc(C)nc(NS(=O)(=O)c2ccc(Nc3c4ccccc4nc4c(C(=O)NC(CO)(CO)CO)cccc34)cc2)n1`, the GI50 in the experiment on A498 was 31.3 µM (inactive); in the experiment with OVCAR-8, 39.3 µM (inactive); in the experiment with HT-29 it was 28.1 µM (inactive); with NCI-H460, 15.8 µM (inactive); in the experiment on SNB-75, 5.65 µM (inactive); in the experiment with OVCAR-4 it was 45.9 µM (inactive). For the same compound, the GI50 in the experiment on K562 was 31.4 µM (inactive); with HOP-62 it was 26.7 µM (inactive); in the experiment on TK-10 it was 31.3 µM (inactive); with NCI/ADR-RES, > 100 µM (inactive); with SNB-19 it was 25.4 µM (inactive); with BT-549 it was 21.8 µM (inactive). The GI50 in the experiment on A549 is 27.5 µM (inactive); with SW-620, 38.5 µM (inactive); in the experiment on UACC-257, 42 µM (inactive); in the experiment on IGROV-1, 40.1 µM (inactive); with Malme-3M, > 10 µM (inactive); with PC-3, 35.6 µM (inactive).
Turning to `COC(=O)c1ccc(Oc2nc3ccccc3nc2-c2cccs2)cc1`, the GI50 in the experiment with OVCAR-8 is 51.8 µM (inactive); with HT-29, > 100 µM (inactive); in the experiment with RXF 393 it was 4.79 µM (inactive); in the experiment with NCI-H460, 33.7 µM (inactive); in the experiment on SNB-75, 7.83 µM (inactive); in the experiment on HCT-116 it was 41.3 µM (inactive). For the same compound, the GI50 in the experiment on OVCAR-4 was > 100 µM (inactive); with K562, > 10 µM (inactive); with HOP-62, 11.9 µM (inactive); in the experiment with TK-10 it was 26.7 µM (inactive); in the experiment on NCI/ADR-RES, 64.1 µM (inactive); in the experiment on SNB-19, 27.5 µM (inactive). The GI50 with BT-549 is 45.7 µM (inactive); with A549, 26.1 µM (inactive); in the experiment on SW-620 it was 46.8 µM (inactive); with UACC-257, > 100 µM (inactive); in the experiment with IGROV-1 it was 39.3 µM (inactive); in the experiment with Malme-3M, > 100 µM (inactive). Also, in the experiment with PC-3, the GI50 was 44.9 µM (inactive).
Regarding `COC(=O)c1c(C(=O)OC)c2c3ccccc3n(C)c2c2c1c1ccccc1n2C`, the GI50 is 95.1 µM (inactive) in the experiment on A498; > 100 µM (inactive) in the experiment with OVCAR-8; > 100 µM (inactive) with HT-29; > 100 µM (inactive) with NCI-H460; 25.8 µM (inactive) in the experiment with SNB-75; > 100 µM (inactive) in the experiment with HCT-116. The GI50 in the experiment with OVCAR-4 is 31.4 µM (inactive); with K562 it was > 100 µM (inactive); in the experiment on HOP-62, 19.3 µM (inactive); with TK-10 it was > 100 µM (inactive); in the experiment on NCI/ADR-RES it was > 100 µM (inactive); with SNB-19, 27.6 µM (inactive). For the same compound, the GI50 was > 100 µM (inactive) with BT-549; 65.2 µM (inactive) in the experiment on A549; > 100 µM (inactive) in the experiment with SW-620; > 100 µM (inactive) with UACC-257; 16.9 µM (inactive) with IGROV-1; 89.9 µM (inactive) in the experiment on Malme-3M. For the same compound, the GI50 with PC-3 was 54.6 µM (inactive).
As for `COc1ccc(-c2nc(N(C)C)c3ccccc3n2)cc1`, the GI50 was 11.3 µM (inactive) in the experiment on OVCAR-8; 5.51 µM (inactive) in the experiment on HT-29; 9.29 µM (inactive) in the experiment with RXF 393; 10.8 µM (inactive) with NCI-H460; 13.5 µM (inactive) in the experiment on SNB-75; 4.57 µM (inactive) with HCT-116. Also, the GI50 with OVCAR-4 was 32.6 µM (inactive); in the experiment on K562 it was 13.9 µM (inactive); in the experiment with HOP-62, 16.6 µM (inactive); in the experiment with TK-10, 18.3 µM (inactive); in the experiment on NCI/ADR-RES it was 5.09 µM (inactive); in the experiment on SNB-19 it was 17.7 µM (inactive). Further, the GI50 in the experiment with BT-549 is 14.2 µM (inactive); with A549, 6.1 µM (inactive); with SW-620 it was 9.48 µM (inactive); in the experiment with UACC-257 it was 16.4 µM (inactive); with IGROV-1, 9.55 µM (inactive); with Malme-3M it was 16.8 µM (inactive). The GI50 with PC-3 is 24 µM (inactive).
As to `O=c1ccn(C2OC(CO)C(O)C2[Se]c2ccccc2)c(=O)[nH]1` (stereo not drawn), the GI50 with A498, in the experiment with OVCAR-8, in the experiment on HT-29, with NCI-H460, in the experiment with SNB-75 and in the experiment with HCT-116 was > 100 µM (inactive) throughout. Further, the GI50 in the experiment on OVCAR-4 is > 100 µM (inactive); with K562, > 100 µM (inactive); with HOP-62 it was > 100 µM (inactive); in the experiment with TK-10 it was 0.24 µM (active); in the experiment with NCI/ADR-RES it was > 100 µM (inactive); with SNB-19, > 100 µM (inactive). The GI50 in the experiment on BT-549 is > 100 µM (inactive); with A549, > 100 µM (inactive); in the experiment with SW-620, > 100 µM (inactive); with UACC-257, 2.77 µM (inactive); in the experiment on IGROV-1, > 100 µM (inactive); in the experiment on Malme-3M, > 100 µM (inactive). In addition, the GI50 with PC-3 was > 100 µM (inactive).
As for `COc1cccc(-c2nc(N)c(C#N)c3c2CCS(=O)(=O)c2ccc(C)cc2-3)c1`, the GI50 in the experiment on A498 was 30.1 µM (inactive); with OVCAR-8 it was 26.1 µM (inactive); in the experiment on HT-29, 9.68 µM (inactive); with NCI-H460 it was 10.8 µM (inactive); with SNB-75 it was 10.4 µM (inactive); with HCT-116 it was 20 µM (inactive). Also, the GI50 is > 100 µM (inactive) with OVCAR-4; 3.21 µM (inactive) with K562; 30.2 µM (inactive) with HOP-62; > 68.9 µM (inactive) in the experiment on TK-10; 15.2 µM (inactive) in the experiment with NCI/ADR-RES; > 31.3 µM (inactive) in the experiment with SNB-19. Further, the GI50 with BT-549 is 52 µM (inactive); in the experiment with A549, 11.6 µM (inactive); in the experiment on SW-620, > 34.1 µM (inactive); with UACC-257, 34.1 µM (inactive); in the experiment with IGROV-1, 15.2 µM (inactive); with Malme-3M, 18.2 µM (inactive). The GI50 with PC-3 was 15.8 µM (inactive).

The values above are taken from ChEMBL document CHEMBL1201862, “PubChem BioAssay data set” (2004).
